Data published in patent publication US20190151256A1, “Composition Including Nonanal As Active Ingredient For Preventing Hair Loss Or Stimulating Hair Development” (Industry-Academic Cooperation Foundation, Yonsei University, priority 2017, published 2019).

Legend:
[1] = change in body weight during dermal application; settings: after 4 weeks of application, 3 mg/mouse/day dermal
Protocol: Experiments were carried out using 24 male C57BL/6N mice aged 6 weeks, which were purchased from OrientBio Inc., acclimated for two weeks in a laboratory environment, and then divided into a total of three groups (n=5) of a negative control (CON), a positive control (MXD) and a nonanal group (NN). An animal laboratory was maintained at 21±2.0° C., a relative humidity of 50±5%, on a 12-hour day/night cycle. During the experimental period, a general solid feed (chow) and water were freely offered to the mice.
To investigate a hair development effect, an 8-week-old mouse with telogen-phase hair, in which a dorsal skin color was pink, were used. The dorsal hair of the mouse was removed using a clipper for a mouse, and the sample was applied daily at 4 p.m. for 4 weeks. The test material nonanal (3 mg/mouse/day) and the control drug Minoxidil (3 mg/mouse/day) were applied after being dissolved in the vehicle (ethanol:water:propylene glycol=5:3:2), and only the vehicle was applied to the negative control group.
A body weight of the experimental animal from immediately before the application of an agent for hair development to the end of the application was measured weekly.

[2] = system: telogen-phase hair; assay: hair development state and hair length in shaved mice; assay type: in vivo, C57BL/6N mice; settings: dermal 3 mg/mouse/day
Protocol: To visually examine a hair growth state, 1, 2, 3, and 4 weeks after the application started, the experimental animals were slightly anesthetized with ether, and a dorsal region was photographed. To evaluate the degree of hair growth, the hair length was measured using a ruler.

[3] = system: hair follicles; assay: histological analysis of dorsal skin; assay type: in vivo, C57BL/6N mice; settings: 4 weeks of application
From the text: The experimental animals were sacrificed after four weeks of the application, and a dorsal skin tissue specimen was extracted from the test material-applied region using scissors and forceps, and then fixed with formalin. By steps, the resulting specimen was dehydrated with an alcohol and xylene, embedded in paraffin, sliced into a 5-μm fragment using a microtome, and treated again with an alcohol and xylene to remove paraffin. After hematoxylin-eosin staining, a histological change in hair follicle tissue was observed using an optical microscope. The hair development cycle was evaluated by a pathologist, the number and diameter of hair follicles were measured using an optical microscope, and the number of hair follicles in the test group was measured under a 40× optical microscope.

[4] = system: β-catenin; assay: Western blot of dorsal skin tissue; assay type: in vivo, mouse; settings: Western blotting
Protocol: A predetermined amount of skin tissue was homogenized with liquid nitrogen and a lysis buffer using a mortar and centrifuged at 13,000×g and 4° C. for 20 minutes to obtain an intermediate layer, and then a protein was quantified by the Bradford method. 50 μg of the protein was subjected to electrophoresis on an SDS polyacrylamide gel and electroblotted onto a PVDF hyperfilm, and then reacted with a β-catenin or β-actin antibody (Cell Signaling Technology, Danvers, Mass., USA). A signal of each protein was visualized using a chemiluminescent detection system (Amersham), and then a band thickness was quantified using the Quantity One Analysis Software (Bo-Rad Laboratories).

[5] = system: Cyclin D1; assay: q-PCR gene expression in dorsal skin tissue; assay type: in vivo, mouse; settings: 4 weeks
Protocol: (§1) To quantify total RNA in skin tissue of the experimental animals, 1 mL of a TRIzol solution was added to 50 to 100 mg of skin tissue and homogenized, and then centrifuged at 4° C. and 12,000×g for 10 minutes. The supernatant was transferred to a new tube, 200 μl of chloroform was added, and then the resulting mixture was vigorously shaken. This process was repeated twice, then the supernatant was transferred to a new tube, in which isopropanol and the supernatant were added in a ratio of 1:1. The resulting mixture was shaken 10 times, and maintained at room temperature for 10 minutes and centrifuged at 12,000×g and 4° C. for 10 minutes to remove the supernatant. Then, 1 ml of 70% ethanol was added to the remaining pellet and centrifuged at 7,500×g and 4° C. for 5 minutes. Following the removal of ethanol, a tube containing the RNA pellet was dried at room temperature for 5 minutes, and the RNA pellet was dissolved in nuclease-free water. Concentrations of the extracted RNA specimens at 260 nm and 280 nm wavelengths were measured using a UV/VIS spectrophotometer (Beckman Coulter, DU730), and agarose gel electrophoresis was performed to confirm the integrity of the RNA specimens.
(§2) Following the isolation of RNA, cDNA was synthesized by performing reverse transcription using an oligo dT primer and a Superscript reverse transcriptase (Gibco BRL, Gaithersburg, Md., USA). To measure expression levels of genes, real-time q-PCR was performed using SYBR Green (Bio-Rad, Hercules, Calif., USA), and the instrument used was a CFX Connect™ Real-Time PCR Detection System (Bio-Rad).
(§3) For real time PCR, 2 μL of cDNA, 10 μL of a 2× SYBR mix, 1 μL each of a forward primer and a reverse primer (10 to 20 pmol/μL) were added, and then, H2O was filled to the final volume 20 μL. A PCR extension step was performed as follows, and 35 extension cycles was performed. The extension was performed at 95° C. for 1 minute for hot start, at 95° C. for 15 seconds for denaturation in the extension step, at 55° C. for 30 seconds for annealing, and at 72° C. for 1 minute for extension. After all cycles were completed, to identify primer specificity, melting curve analysis was performed.
(§4) Change in expression of a β-catenin signaling material known as a mechanism for promoting hair development in skin tissue was analyzed by q-PCR analysis on dorsal skin tissue of a mouse to which the test material was applied for 4 weeks.

[6] = system: Lymphoid enhancer factor (LEF); assay: q-PCR gene expression in dorsal skin tissue; assay type: in vivo, mouse; settings: 4 weeks
Protocol: as §1, §2, §3, §4

[7] = system: T-Cell factor (TCF); assay: q-PCR gene expression in dorsal skin tissue; assay type: in vivo, mouse; settings: 4 weeks
Protocol: as §1, §2, §3, §4

[8] = system: β-catenin; assay: q-PCR gene expression in dorsal skin tissue; assay type: in vivo, mouse; settings: 4 weeks
Protocol: as §1, §2, §3, §4

[9] = system: rats; settings: oral; cited from earlier work
[10] = clinical studies, 1% solution; cited from earlier work
[11] = system: diarrhea-induced mice; settings: cited from earlier work
[12] = system: rabbits; settings: transdermal; cited from earlier work

SMILES	body weight, difference between test groups [1]	hair length at three weeks ([2]; 3 weeks)	visual hair growth after 4 weeks ([2]; 4 weeks, vs negative control)	increase in hair length compared with negative control ([2]; after four weeks, p<0.001)	visual hair growth (onset) ([2]; weekly photographs)	increase in number of hair follicles compared with negative control [3]	microscopy of hair follicles [3]	increase in hair follicle diameter compared with negative control ([3]; image analysis)	increase in β-catenin protein expression compared with negative control [4]	β-catenin protein expression effect compared with Minoxidil group [4]	cyclin D1 gene expression compared with negative control [5]	LEF gene expression compared with negative control [6]	TCF gene expression compared with negative control [7]	β-catenin gene expression compared with negative control [8]	lethal dose 50% (LD50 value) [9]	dermal irritation or sensitization reaction [10]	inhibition of diarrhea [11]	LD50 value [12]
Nc1cc(N2CCCCC2)nc(N)[n+]1[O-] [Minoxidil]	no significant difference	–	–	–	–	–	–	–	–	–	–	–	–	–	–	–	–	–
CCCCCCCCC=O [nonanal]	–	significantly increased	hair grew more evenly and fully in more individuals than that in the negative control group	434%	from three weeks of the application, hair began to grow	166%	hair follicles elongated to come out of the skin	38%	71%	superior to that of the Minoxidil group	significantly increased	significantly increased	significantly increased	significantly increased	5,000 mg/kg	no dermal irritation or sensitization reaction	significant effect in inhibition of diarrhea	5,000 mg/kg
